According to publication PMC7557582, “Broad-Spectrum Antimicrobial Activity and Improved Stability of a D-Amino Acid Enantiomer of DMPC-10A, the Designed Derivative of Dermaseptin Truncates” (Antibiotics, 2020):
In brackets after ≈: the same amount, converted by molar mass. Non-standard residues stand in square brackets, D forms with d. Residues, ends and D or L forms follow the SMILES beside them. Cha = N[C@@H](CC1CCCCC1)C(=O)O

Experiments:
[1] = test system: K. pneumoniae (ATCC BAA 2342); type: cell-based, Klebsiella pneumoniae; conditions: ATCC BAA 2342, pH 7.4
Method: (§6) Gram-positive bacteria Staphylococcus aureus (NCTC 10788) and Enterococcus faecalis (NCTC 12697) and Gram-negative bacteria Escherichia coli (NCTC 10418), Pseudomonas aeruginosa (ATCC 27853), and Klebsiella pneumoniae (ATCC 43816) were tested. […] All the bacterial strains were inoculated in Mueller Hinton broth (MHB), pH 7.4 (Oxiod, Basingstoke, UK) at 37 °C. Then, the log-phase bacteria were mixed with the peptide at the concentrations from 512 to 1 µM in two-fold dilution, in a 96 well-plate. The wells contained sterilized MHB and bacteria cultures were employed as a blank and growth control, respectively.

[2] = test system: K. pneumoniae (ATCC 43816); type: cell-based, Klebsiella pneumoniae; conditions: ATCC 43816, pH 7.4
Method: as §6

[3] = cited from earlier work
Text: Dermaseptins are a class of cationic AMPs that were discovered from the skin of Phyllomedusa frogs, usually consisting of 28–34 amino acids. They can form an amphipathic α-helix in amphiphilic environments, which makes them bind easily to bacterial lipid bilayers. Dermaseptins contain a conserved Trp residue in position three and a unique internal motif, -AAA/GKAAL/G/NA-, and exert broad-spectrum antimicrobial activity against a range of ESKAPE pathogens. […] Compared with the other AMPs applied using the same model, such as Japonicin-2LF [53], DMPC-10B exerted relatively stronger efficacy. Japonicin-2LF prevented around 50% mortality at 50 mg/kg in treatment of MRSA infection, but DMPC-10B achieved similar efficacy at 20 mg/kg.

[4] = target: T1, trypsin (Bos taurus, UniProt P00760); test: Enzyme stability assay, trypsin; type: in vitro ADME; conditions: peptide in PBS, peptide:trypsin 100:1 (m/m), time points 0-120 min, stopped with 10% TFA, RP-HPLC peak area, three replicates
T1 construct: gene PRSS1
T1 sequence (P00760 24-246): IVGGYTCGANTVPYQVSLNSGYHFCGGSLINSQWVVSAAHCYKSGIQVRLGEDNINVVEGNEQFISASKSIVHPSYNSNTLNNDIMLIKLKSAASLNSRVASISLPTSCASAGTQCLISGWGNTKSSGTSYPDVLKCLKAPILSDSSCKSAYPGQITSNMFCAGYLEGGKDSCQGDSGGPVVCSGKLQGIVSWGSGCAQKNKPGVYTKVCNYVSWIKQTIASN
Method: (§1) The peptides were dissolved in phosphate-buffered saline (PBS) and mixed with the respective enzyme (trypsin and chymotrypsin) with a ratio of 100:1 (m/m). Then, 135 µl of the reaction solution was transferred into a new vial. The hydrolysis reaction was immediately terminated by adding 15 µl of 10% TFA at the different time points (0, 5, 10, 20, 40, 60, 120 min). The mixture was then analyzed by reverse-phase HPLC and respective peak areas were calculated to obtain the residual amount of peptides at different times.

[5] = target: chymotrypsin (Bos taurus, UniProt P00766); test: Enzyme stability assay, chymotrypsin; type: in vitro ADME; conditions: peptide in PBS, peptide:chymotrypsin 100:1 (m/m)
Method: as §1

[6] = test system: MRSA (NCTC 12493); type: cell-based, methicillin-resistant S. aureus; conditions: NCTC 12493, pH 7.4
Method: as §6

[7] = test system: E. faecalis (NCTC 12697); type: cell-based, Enterococcus faecalis; conditions: NCTC 12697, pH 7.4
Method: as §6

[8] = test system: S. aureus (NCTC 10788); type: cell-based, Staphylococcus aureus; conditions: NCTC 10788, pH 7.4
Method: as §6

[9] = test system: K. pneumoniae (ATCC BAA 1705); type: cell-based, Klebsiella pneumoniae; conditions: ATCC BAA 1705, pH 7.4
Method: as §6

[10] = test system: E. coli (NCTC 10418); type: cell-based, Escherichia coli
Method: (§2) Furthermore, the antimicrobial activity in the presence of MgCl2, CaCl2, NaCl and 10% fetal bovine serum (FBS) was investigated. In detail, 2 and 5 mM of MgCl2 and CaCl2, and 150 and 375 mM NaCl, were applied, respectively. The supplements were added into the medium that was used for diluting the bacteria suspension. Then, the diluted bacteria culture was mixed with the peptide stock solution in the 96-well plate, as mentioned above. The assay was performed three times and each assay contained 5 replicates.

[11] = test system: P. aeruginosa (ATCC 27853); type: cell-based, Pseudomonas aeruginosa; conditions: ATCC 27853, pH 7.4
Method: as §6

[12] = test system: S. aureus (NCTC 10788); type: cell-based, Staphylococcus aureus
Method: as §2

[13] = test system: E. coli (NCTC 10418); type: cell-based, Escherichia coli; conditions: NCTC 10418, pH 7.4
Method: as §6

[14] = test system: K. pneumoniae (ATCC 43816) biofilm; test: Inhibition of biofilm formation (crystal violet); type: cell-based, Klebsiella pneumoniae; conditions: 37 °C 24–48 h, crystal violet 595 nm
Method: (§3) The antibiofilm activity of synthetic peptides was evaluated via the inhibitory effect against the formation of biofilm and the eradication of mature biofilm, which were performed as the previously study with minor modifications. […] Then, the solution in each well was discarded. The biofilm was washed with PBS. Finally, the biofilm in each well was stained by 100 μL of 0.1% crystal violet solution and further dissolved by 30% acetic acid. The absorbance of dissolved crystal violet in each well was recorded at 595 nm. For the eradication of mature biofilm, biofilm was formed with incubation at 37 °C for 24–48 h. Then, the plate was washed with PBS and filled with the peptides which were prepared in the fresh medium. After treatment for 24 h at 37 °C, the plate was stained as mentioned above. Both assays were repeated three times, with 5 replicates each time.

[15] = test system: healthy Galleria mellonella larvae; test: Toxicity to larvae without infection; type: in vivo; conditions: highest dose (20 mg/kg), 5 days
[16] = test system: S. aureus (NCTC 10788) biofilm; test: Eradication of mature biofilm (crystal violet); type: cell-based, Staphylococcus aureus; conditions: high concentrations ranging from 32 to 128 µM, 24 h treatment at 37 °C
Method: as §3

[17] = test system: Galleria mellonella larvae infected with K. pneumoniae (ATCC 43816); test: Galleria mellonella larva infection model; type: in vivo; conditions: 20 mg/kg injected 1 h after infection, 5 days, 10 larvae per group
Method: The assessment of in vivo antimicrobial activity of DMPC-10B was performed using the larva of Galleria mellonella, as in the previous study, with minor modifications. The infection model was constructed by injecting 10 μL of MRSA (NCTC 12493) and K. pneumoniae (ATCC 43816) bacteria suspension (5 × 10^7 CFU/mL) which was prepared in PBS. After 1 h, each infected larva was further administered an injection of 10 μL of peptide solution at different doses of 5, 10, 20 mg/kg. The infected larva that was administered 10 μL of PBS was employed as a negative control, while 20 mg/kg of gentamicin was used as a positive control. Each group contained 10 larvae and all larvae were inspected every 24 h for 5 days (the first day was 12 h).

[18] = test system: K. pneumoniae (ATCC 43816) biofilm; test: Eradication of mature biofilm (crystal violet); type: cell-based, Klebsiella pneumoniae; conditions: at 64 µM and 128 µM, compared with S. aureus and MRSA
Method: as §3

[19] = test system: K. pneumoniae (ATCC BAA 2342); test: Checkerboard synergy assay; type: cell-based, Klebsiella pneumoniae
Method: (§4) The bacteria culture was prepared and diluted as performed in Section 4.4. Then, the bacteria dilution was mixed with a different combination of DMPC-10B and the antibiotics in the 96-well plate. The wells only contained individual peptides or antibiotics were applied as reference controls. Similarly, the turbidity of each well in the plate was measured at OD 550 nm, after incubation at 37 °C for 24 h. The fractional inhibitory concentration index (FICI) of each combination was defined as follows: FICI=MIC of DMPC-10B in combination/MIC of DMPC-10B alone+MIC of antibiotic in combination/MIC of antibiotic alone
(§5) The profile of the combination was interpreted as synergistic, additive, and antagonistic for FICI ≤ 0.5, 0.5 < FICI ≤ 4.0, and FICI > 4.0, respectively.

[20] = test system: K. pneumoniae (ATCC BAA 1705); test: Checkerboard synergy assay; type: cell-based, Klebsiella pneumoniae
Method: as §4, §5

[21] = test system: MRSA (NCTC 12493) biofilm; test: Inhibition of biofilm formation (crystal violet); type: cell-based, methicillin-resistant S. aureus; conditions: 37 °C 24–48 h, crystal violet 595 nm
Method: as §3

[22] = test system: MRSA (NCTC 12493) biofilm; test: Eradication of mature biofilm (crystal violet); type: cell-based, methicillin-resistant S. aureus; conditions: high concentrations ranging from 32 to 128 µM, 24 h treatment at 37 °C
Method: as §3

[23] = test system: S. aureus (NCTC 10788) biofilm; test: Inhibition of biofilm formation (crystal violet); type: cell-based, Staphylococcus aureus; conditions: 37 °C 24–48 h, crystal violet 595 nm
Method: as §3

SMILES: CC(C)C[C@H](NC(=O)[C@H](C)N)C(=O)N[C@@H](Cc1c[nH]c2ccccc12)C(=O)N[C@@H](CCCCN)C(=O)N[C@@H](CCCCN)C(=O)N[C@@H](CC(C)C)C(=O)N[C@@H](CC(C)C)C(=O)N[C@@H](CCCCN)C(=O)N[C@@H](CCCCN)C(=O)N[C@@H](CC1CCCCC1)C(N)=O [DMPC-10A] (H-ALWKKLLKK[Cha]-NH2)
- MBC [1]: 16 µM (≈ 20.5 µg/mL)
- MIC [1]: 16 µM (≈ 20.5 µg/mL)
- MBC [2]: 64 µM (≈ 81.9 µg/mL)
- MIC [2]: 4 µM (≈ 5.12 µg/mL)
- hemolytic effect [3]: considerable hemolytic effect
- time in which trypsin completely cleaved the peptide [4]: 10 min
- time in which chymotrypsin cleaved the peptide ([5]; time points 0-120 min, stopped with 10% TFA, RP-HPLC peak area, three replicates): 40 min
- MBC [6]: 16 µM (≈ 20.5 µg/mL)
- MIC [6]: 8 µM (≈ 10.2 µg/mL)
- MBC [7]: 64 µM (≈ 81.9 µg/mL)
- MIC [7]: 64 µM (≈ 81.9 µg/mL)
- MBC [8]: 8 µM (≈ 10.2 µg/mL)
- MIC [8]: 4 µM (≈ 5.12 µg/mL)
- MBC [9]: 32 µM (≈ 41 µg/mL)
- MIC [9]: 32 µM (≈ 41 µg/mL)
- MIC with CaCl2 5 mM [10]: 64 µM
- MIC with FBS 10% [10]: 16 µM
- MIC with MgCl2 5 mM [10]: 64 µM
- MIC with NaCl 150 mM [10]: 16 µM
- MIC with NaCl 375 mM [10]: 32 µM
- MIC, no additive [10]: 8 µM (≈ 10.2 µg/mL)
- MBC [11]: 4 µM (≈ 5.12 µg/mL)
- MIC [11]: 4 µM (≈ 5.12 µg/mL)
- MIC with CaCl2 5 mM [12]: 64 µM
- MIC with FBS 10% [12]: 16 µM
- MIC with MgCl2 5 mM [12]: 64 µM
- MIC with NaCl 150 mM [12]: 32 µM
- MIC with NaCl 375 mM [12]: 64 µM
- MIC, no additive [12]: 4 µM (≈ 5.12 µg/mL)
- MBC [13]: 8 µM (≈ 10.2 µg/mL)
- MIC [13]: 8 µM (≈ 10.2 µg/mL)

SMILES: CC(C)C[C@@H](NC(=O)[C@H](C)N)C(=O)N[C@@H](Cc1c[nH]c2ccccc12)C(=O)N[C@H](CCCCN)C(=O)N[C@H](CCCCN)C(=O)N[C@H](CC(C)C)C(=O)N[C@H](CC(C)C)C(=O)N[C@H](CCCCN)C(=O)N[C@H](CCCCN)C(=O)N[C@@H](CC1CCCCC1)C(N)=O [DMPC-10B] (H-A[dL]W[dK][dK][dL][dL][dK][dK][Cha]-NH2; N-terminus assumed)
- inhibition of biofilm formation [14]: less potent
- death of healthy larvae [15]: did not induce any death
- MBC [1]: 16 µM (≈ 20.5 µg/mL)
- MIC [1]: 16 µM (≈ 20.5 µg/mL)
- MBC [2]: 8 µM (≈ 10.2 µg/mL)
- MIC [2]: 8 µM (≈ 10.2 µg/mL)
- time within which trypsin could not degrade the peptide completely [4]: > 2 h
- stability to hydrolysis by chymotrypsin ([5]; 120 min, RP-HPLC peak area, three replicates): exhibited resistance to the hydrolysis
- time within which L-Trp site was not cleaved by chymotrypsin ([5]; RP-HPLC): > 2 h
- biofilm eradication effect [16]: around 50%
- MBC [6]: 8 µM (≈ 10.2 µg/mL)
- MIC [6]: 4 µM (≈ 5.12 µg/mL)
- survival of infected larvae [17]: around 70%
- biofilm eradication effect [18]: more potent effects
- MBC [7]: 64 µM (≈ 81.9 µg/mL)
- MIC [7]: 64 µM (≈ 81.9 µg/mL)
- combined MIC of DMPC-10B with norfloxacin ([19]; first value): 16/16
- individual MIC of DMPC-10B (norfloxacin checkerboard) ([19]; second value): 16/16
- combined MIC of DMPC-10B with norfloxacin ([20]; first value): 32/32
- individual MIC of DMPC-10B (norfloxacin checkerboard) ([20]; second value): 32/32
- MBC [8]: 16 µM (≈ 20.5 µg/mL)
- MIC [8]: 4 µM (≈ 5.12 µg/mL)
- inhibition of biofilm formation [21]: effectively inhibited
- MBC [9]: 32 µM (≈ 41 µg/mL)
- MIC [9]: 32 µM (≈ 41 µg/mL)
- MIC with CaCl2 5 mM [10]: 32 µM
- MIC with FBS 10% [10]: 4 µM
- MIC with MgCl2 5 mM [10]: 32 µM
- MIC with NaCl 150 mM [10]: 16 µM
- MIC with NaCl 375 mM [10]: 32 µM
- MIC, no additive [10]: 2 µM (≈ 2.56 µg/mL)
- MBC [11]: 32 µM (≈ 41 µg/mL)
- MIC [11]: 4 µM (≈ 5.12 µg/mL)
- MIC with CaCl2 5 mM [12]: 64 µM
- MIC with FBS 10% [12]: 8 µM
- MIC with MgCl2 5 mM [12]: 64 µM
- MIC with NaCl 150 mM [12]: 64 µM
- MIC with NaCl 375 mM [12]: 128 µM
- MIC, no additive [12]: 4 µM (≈ 5.12 µg/mL)
- biofilm eradication effect [22]: around 50%
- MBC [13]: 4 µM (≈ 5.12 µg/mL)
- MIC [13]: 2 µM (≈ 2.56 µg/mL)
- inhibition of biofilm formation [23]: effectively inhibited
